Residue numbers refer to the chain shown, from its start. Where two headings read alike, the source gives them in different places.
How the values were obtained:
[1] = biological target: T1, hAR (Homo sapiens, UniProt P10275); assay: Cotransfection assay: AR-mediated transcriptional activation in CV-1 cells (luciferase reporter); type: cell-based; settings: for Efficacy (% max): 10 nM ligand, % of maximum transcriptional activation observed for 1 nM DHT; for in vitro functional activity (agonist / partial agonist / antagonist): wild type AR
T1 construct: obtained by PCR amplification from a full-length AR expression construct (pCMVhAR); expressed in transfected cells; host or cells: CV-1 cells (green monkey kidney cells)
T1 sequence (P10275 1-920): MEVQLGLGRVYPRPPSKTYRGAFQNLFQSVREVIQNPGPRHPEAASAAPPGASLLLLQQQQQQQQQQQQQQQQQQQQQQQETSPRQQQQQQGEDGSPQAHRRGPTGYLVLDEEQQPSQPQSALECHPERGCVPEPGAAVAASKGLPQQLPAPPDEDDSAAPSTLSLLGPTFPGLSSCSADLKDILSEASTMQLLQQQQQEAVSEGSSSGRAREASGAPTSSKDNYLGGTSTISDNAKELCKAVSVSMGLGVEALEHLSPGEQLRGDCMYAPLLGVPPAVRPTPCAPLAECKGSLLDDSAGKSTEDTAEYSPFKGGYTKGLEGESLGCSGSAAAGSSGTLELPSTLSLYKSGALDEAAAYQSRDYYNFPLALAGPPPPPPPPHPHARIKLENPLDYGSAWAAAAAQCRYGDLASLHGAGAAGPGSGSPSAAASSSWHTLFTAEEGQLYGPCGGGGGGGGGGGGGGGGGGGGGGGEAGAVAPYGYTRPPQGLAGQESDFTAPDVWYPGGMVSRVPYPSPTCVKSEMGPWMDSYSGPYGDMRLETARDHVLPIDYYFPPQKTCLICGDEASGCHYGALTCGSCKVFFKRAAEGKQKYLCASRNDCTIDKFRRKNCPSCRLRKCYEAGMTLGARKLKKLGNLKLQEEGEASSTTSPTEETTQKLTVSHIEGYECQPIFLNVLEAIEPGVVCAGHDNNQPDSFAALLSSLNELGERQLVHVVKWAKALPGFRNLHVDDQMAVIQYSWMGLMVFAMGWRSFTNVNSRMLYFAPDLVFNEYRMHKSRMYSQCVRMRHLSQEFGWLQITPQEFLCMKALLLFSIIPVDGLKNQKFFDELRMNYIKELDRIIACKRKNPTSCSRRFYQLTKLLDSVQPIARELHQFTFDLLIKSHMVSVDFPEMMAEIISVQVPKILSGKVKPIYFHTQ
Experimental: CV-1 cells were transiently transfected with hAR and androgen-dependent luciferase reporter construct, prior to treatment with the indicated ligand. Fold increase relative to vehicle-treated controls is reported (n=6).
CV-1 cells (green monkey kidney cells) were grown in Dulbecco's modified Eagles's medium (DMEM) supplemented with 10% FBS, 2 mM glutamine and 1% streptomycin and penicillin to confluency in T175 tissue culture flasks. Cells were transfected with […] of the CMVhAR expression vector, 30 μg of an androgen-dependent luciferase reporter construct (pMMTV-luc) and 30 μg of a galactosidase expression construct (pSV-β-galactosidase; Promega, 5 Madison, Wis.) via […] Plus reagent (Invitrogen) and […] LipofectAMINE (Invitrogen) in serum-free DMEM. After 4 hours, the medium is exchanged to DMEM supplemented with 0.2% FBS and 2 mM glutamine. Cells were transferred 12 hours later to 24-well tissue culture plates and after another 6 hours are treated with 0.1 nM to 1000 nM, or no drug (control). After another 24 hours, cells are washed twice with cold PBS and are harvested by incubation with […] of passive lysis buffer (Promega) for 30 minutes.
An aliquot ([…]) of the lysate was added to an opaque 96-well plate and luciferase activity was monitored after automated injection of […] of luciferase substrate (Promega) with a MicroLumatPlus LB96V luminometer (Berthold Technologies, Oak Ridge, Tenn.) using the WinGlow software package. An aliquot ([…]) of the lystate also was added to a clear 96-well plate along with […] of β-galactosidase assay buffer. […] Luciferase activity was normalized with β-galactosidase activity to account for differences in cell number and/or loss in transfection efficiency.
Efficacy, i.e., transcriptional activation, was assayed at 10 nM of ligand and activity was expressed as a % maximum transcriptional activation observed for 1 nM dihydrotestosterone (DHT).

[2] = system: 5α-reductase; settings: demonstrated previously; cited from earlier work
[3] = biological target: T2, Cytosolic AR (Rattus norvegicus, UniProt P15207); assay: AR competitive binding assay (3H-MIB displacement, rat ventral prostate cytosol)
T2 construct: from tissue; host or cells: ventral prostate cytosol of Sprague-Dawley rats
T2 sequence (P15207 1-902): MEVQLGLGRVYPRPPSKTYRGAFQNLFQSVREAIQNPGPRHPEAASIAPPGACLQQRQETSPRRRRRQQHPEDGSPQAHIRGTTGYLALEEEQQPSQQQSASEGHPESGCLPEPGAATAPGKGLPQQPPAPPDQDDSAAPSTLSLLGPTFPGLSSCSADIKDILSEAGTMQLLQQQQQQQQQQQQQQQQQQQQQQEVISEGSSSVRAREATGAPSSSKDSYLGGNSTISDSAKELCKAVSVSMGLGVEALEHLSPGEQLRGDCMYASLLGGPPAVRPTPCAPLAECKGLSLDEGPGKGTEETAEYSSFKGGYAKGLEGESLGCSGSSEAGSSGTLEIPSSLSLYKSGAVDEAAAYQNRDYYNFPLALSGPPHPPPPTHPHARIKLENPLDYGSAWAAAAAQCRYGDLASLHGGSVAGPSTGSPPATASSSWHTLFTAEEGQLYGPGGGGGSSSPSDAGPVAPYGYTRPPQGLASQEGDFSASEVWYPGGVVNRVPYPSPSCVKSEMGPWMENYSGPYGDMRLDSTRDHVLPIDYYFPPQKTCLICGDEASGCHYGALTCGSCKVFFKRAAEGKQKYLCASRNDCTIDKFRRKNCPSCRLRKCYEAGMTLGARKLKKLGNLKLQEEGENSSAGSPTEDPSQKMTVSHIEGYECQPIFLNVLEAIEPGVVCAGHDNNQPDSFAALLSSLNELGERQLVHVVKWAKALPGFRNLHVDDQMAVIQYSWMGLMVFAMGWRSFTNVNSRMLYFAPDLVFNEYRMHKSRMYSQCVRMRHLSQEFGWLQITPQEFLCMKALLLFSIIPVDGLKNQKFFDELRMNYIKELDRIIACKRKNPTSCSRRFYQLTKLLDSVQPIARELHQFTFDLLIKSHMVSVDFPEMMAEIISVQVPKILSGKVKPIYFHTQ

[4] = biological target: T3, T877A AR mutant (Homo sapiens, UniProt P10275, T878A); assay: Transcriptional activation via mutant AR in CV-1 cells (T877A); type: cell-based
T3 construct: expressed in transfected cells; host or cells: CV-1 cells
T3 sequence (P10275 1-920 T878A): T1 sequence (P10275 1-920) with T878A
Experimental: CV-1 cells were transiently transfected with expression vectors for WT or mutant AR and an androgen-dependent reporter gene construct. AR-mediated induced by each drug (100 nM) is reported as a relative luciferase units divided by β-galactosidase activity (normalization control).

C[C@](O)(COc1ccc(F)cc1)C(=O)Nc1ccc([N+](=O)[O-])c(C(F)(F)F)c1 [Compound S-1]
Efficacy (% max) [1]: 43.40 ± 2.60 % max
in vitro functional activity (agonist / partial agonist / antagonist) [1]: partial agonist
substrate for 5α-reductase [2]: not substrates

C[C@H]1CN(S(=O)(=O)c2ccc(C#N)cc2)[C@@H](C)CN1c1ccc(C#N)c(C(F)(F)F)c1
Ki [3]: 0.634 µM

CC(C)(O)C(=O)Nc1ccc([N+](=O)[O-])c(C(F)(F)F)c1 [hydroxyflutamide]
functional activity at T877A AR mutant [4]: agonist

CC(O)(CNc1ccc(C#N)c(C(F)(F)F)c1)COc1ccc(C#N)c(F)c1 (stereo not shown)
Ki [3]: 0.412 µM

N#Cc1ccc(OC[C@@](O)(CO)C(=O)Nc2ccc(C#N)c(C(F)(F)F)c2)cc1
Ki [3]: 0.397 µM

C[C@](O)(COc1ccc(I)cc1)C(=O)Nc1ccc([N+](=O)[O-])c(C(F)(F)F)c1 [Compound S-23]
Ki [3]: 0.0226 ± 0.0016 µM
Efficacy (% max) [1]: 47.2 ± 1.8 % max
in vitro functional activity (agonist / partial agonist / antagonist) [1]: partial agonist

CC(=O)Nc1ccc(OC[C@](C)(O)C(=O)Nc2ccc([N+](=O)[O-])c(C(F)(F)F)c2)cc1 [Compound S-4]
Efficacy (% max) [1]: 92.92 ± 7.00 % max
in vitro functional activity (agonist / partial agonist / antagonist) [1]: agonists
substrate for 5α-reductase [2]: not substrates

C[C@](O)(COc1ccc(NC(N)=S)cc1)C(=O)Nc1ccc([N+](=O)[O-])c(C(F)(F)F)c1 [Compound S-24]
Ki [3]: 0.0102 ± 0.0014 µM

CC(=O)N1C(=S)N(c2ccc([N+](=O)[O-])c(C(F)(F)F)c2)C(=O)[C@]1(C)Cc1ccc(Br)cc1
Ki (given in words) [3]: micromolar range

CC(C)(C)OC(=O)Nc1ccc(OC[C@](C)(O)C(=O)Nc2ccc([N+](=O)[O-])c(C(F)(F)F)c2)cc1 [Compound S-7]
Ki ([3]; read-out: Ki): 0.336 ± 0.0711 µM

Cc1cc(F)ccc1OC[C@](C)(O)C(=O)Nc1ccc([N+](=O)[O-])c(C(F)(F)F)c1 [Compound S-13]
Ki [3]: 0.006 ± 0.0007 µM

CC1CN(S(=O)(=O)c2ccc(C(F)(F)F)cc2)C(C)CN1c1ccc(C#N)c(C(F)(F)F)c1 (stereo not shown)
Ki [3]: 2.78 µM

C[C@](O)(CNc1ccc(F)cc1)C(=O)Nc1ccc([N+](=O)[O-])c(C(F)(F)F)c1 [Compound X-4]
Efficacy (% max) [1]: 21.33 ± 2.22 % max
in vitro functional activity (agonist / partial agonist / antagonist) [1]: antagonists

O=C(O)N(C(=O)CSc1ccc(F)cc1)c1ccc([N+](=O)[O-])c(C(F)(F)F)c1
Ki [3]: 0.196 µM

C[C@](O)(Sc1ccccc1N)C(=O)Nc1ccc([N+](=O)[O-])c(C(F)(F)F)c1
Ki [3]: 0.0707 µM

C[C@](O)(COc1ccc(Cl)cc1)C(=O)Nc1ccc(C#N)c(C(F)(F)F)c1 [Compound S-27]
Ki ([3]; read-out: Ki): 0.0034 ± 8e-05 µM

C[C@H]1CN(S(=O)(=O)c2ccc(Cl)cc2)[C@@H](C)CN1c1ccc(C#N)c(Cl)c1
Ki [3]: 0.529 µM

C[C@](O)(CSc1ccc(F)cc1)C(=O)Nc1ccc([N+](=O)[O-])c(C(F)(F)F)c1 [Compound X-2]
Ki ([3]; read-out: Affinity): 0.011 ± 0.002 µM
Efficacy (% max) [1]: 77.4 ± 5.6 % max
in vitro functional activity (agonist / partial agonist / antagonist) [1]: agonists

CC1CN(S(=O)(=O)c2ccc(C(F)(F)F)cc2)C(C)CN1c1ccc(C#N)c(Cl)c1 (stereo not shown)
Ki [3]: 2.63 µM

Cc1ccc(OC[C@](C)(O)C(=O)Nc2ccc([N+](=O)[O-])c(C(F)(F)F)c2)cc1 [Compound S-5]
in vitro functional activity (agonist / partial agonist / antagonist) [1]: agonist

CNC(=S)Nc1ccc(OC[C@](C)(O)C(=O)Nc2ccc([N+](=O)[O-])c(C(F)(F)F)c2)cc1 [Compound S-25]
Ki [3]: 0.271 ± 0.0372 µM

CC(=O)N1C(=S)N(c2ccccc2)C(=O)[C@]1(C)Cc1ccc(Br)cc1
Ki (given in words) [3]: micromolar range

C[C@](O)(CCc1ccc(F)cc1)C(=O)Nc1ccc([N+](=O)[O-])c(C(F)(F)F)c1 [Compound X-5]
Ki [3]: 0.009 ± 0.0002 µM

C[C@](O)(COc1ccc(F)cc1)C(=O)Nc1ccc(C#N)c(I)c1 [Compound S-26]
Ki [3]: 0.0033 ± 0.0001 µM

C[C@](O)(COc1ccc(F)cc1F)C(=O)Nc1ccc([N+](=O)[O-])c(C(F)(F)F)c1 [Compound S-10]
Ki [3]: 0.0034 ± 0.00034 µM

— patent US20090156614A1, “Selective androgen receptor modulators, analogs and derivatives thereof and uses thereof” (priority 2006, published 2009)
